Legend:
DU145 prostaspheres = test: Treatment of pre-formed CSC-enriched DU145 prostaspheres; assay type: cell-based; details: 40 ng/ml, 48 hrs
Experimental: (A) CSC enriched prostaspheres were formed by maintaining DU145 cells in non-adherent culture supplemented with serum replacement medium for 14 days. The prostaspheres were then treated with either vehicle, γ-T3 (10, 20 μg/ml) or Docetaxel (Doc, 40 ng/ml) for 48 hrs. Spheroids were counted under microscope before and after treatment. Results were presented as mean % change in spheroid number to control±s.d. Note that spheroids were highly sensitive to γ-T3 treatment but resistant to high dose of Docetaxel. (B) Images of prostaspheres after 48 hrs treatment with vehicle, 40 ng/ml of Docetaxel and 10 μg/ml of γ-T3.
5.1.7 Spheroid formation assay—Spheroid formation assay was performed with a protocol modified from previous study (Folkins C, p3560). Briefly, cells were first trypsinized, washed with 1× PBS and resuspended in DMEM F12 medium. Two hundred cells were added into each well of a 24-well-plate pre-coated with polyHEMA (Sigma, St. Louis, Mo.). Cells will be grown in DMEM/F12 mem (Invitrogen, Carlsbad, Calif.) supplemented with 4 μg/mL insulin (Sigma, St. Louis, Mo.), B27 (Invitrogen, Carlsbad, Calif.), 20 ng/mL EGF (Sigma, St. Louis, Mo.), and 20 ng/mL basic FGF (Invitrogen, Carlsbad, Calif.). Fresh medium with the above supplements was added every day. γ-T3 was added at indicated time points and the number of spheroids was counted at day 14 of the assay or at the end of the treatment. Each experiment was repeated in triplicates and each data point represented the mean and standard derivation.

DU145 = details: cited from earlier work
[1] = test system: human estrogen-independent BCa cells (MDA-MB-231); test: MTT cell viability, MDA-MB-231 cells; assay type: cell-based; details: MDA-MB-231, 24 hours
Experimental: 1.1.3 Cell viability study and time course experiment—For cell viability study, 1×10^4 cells resuspended in 100 μl medium were plated into each well of a 96-well plate. The cells were then treated with different concentrations of the vitamin-E isomers for 24 hrs. After the treatment, 20 μl of 3-(4,5-Dimethyl thiazol-2-yl)-2,5-diphenyl tetrazolium bromide (MTT) solution was added into each well and the cells were incubated at 37° C. for 2 hrs. The formazan crystals were then re-suspended in 200 μl of DMSO and the intensity at 595 nm was measured. For JNK inhibitor study, cells were pre-treated with 20 μM of SP600125 for 8 hrs prior to the addition of vitamin-E isomers. For time course study, 5×10^3 cells were treated with different concentrations of the vitamin-E isomers and were subjected to MTT cell proliferation assay at the indicated time point. If IC50 for the isomer is >100 μM, 100 μM will be used as treatment dosage.
3.1.4 Cell viability and time course experiments were carried out as described above under item 1.1.3 with the following difference. For inhibitors study, cells were pre-treated with inhibitors (U0126, PD98059 and APN) at targeted dosage for 8 hrs prior to the addition of vitamin-E isomers.

MDA-MB-231 cells = test: Flow cytometry, western blotting and RT-PCR, MDA-MB-231 cells; assay type: cell-based, human; details: MDA-MB-231
Experimental: 1.1.3 Flow cytometry—Cell cycle distribution was examined using flow cytometry. Briefly, cells were harvested by trypsinization, fixed in 70% ethanol at 4° C. overnight, and then resuspended in PBS. After incubation at 4° C. for overnight, 2×10^6 cells were incubated with in 20 μg/ml propidium iodide (PI) and 2 mg RNaseA for 15 minutes at 37° C. Cells were then examined by BD SLRII cytometer and the results were analyzed using ModFit software (Becton Dickinson, Mountain View, Calif.). Data were expressed as the percentage of cell cycle distribution in the entire population.
1.1.5 Western blotting—Detailed protocols have been described previously and are known in the art. Briefly, cell lysates were prepared by suspending cell pellets in lysis buffer [50 mmol/l Tris-HCl (pH 8.0), 150 mmol/l NaCl, 1% NP40, 0.5% deoxycholate, 0.1% SDS, 1 mg/ml aprotinin, 1 μg/ml leupeptin and 1 mmol/l phenylmethylsulfonyl fluoride]. For nuclear protein extraction, NucBuster™ protein extraction kit was used. Protein concentration was measured using the DC Protein Assay kit (Bio-Rad, Hercules, Calif.). Equal amount of protein (30 μg) was loaded onto a 10% SDS polyacrylamide gel for electrophoresis and then transferred onto a polyvinylidene difluoride membrane (Amersham, Piscataway, N.J.). The membrane was then incubated with primary antibodies for 1 hr at room temperature against E-cadherin (BD Biosciences, Bedford, Mass.), α-catenin, β-catenin, γ-catenin, Id-1, Id-3, EGFR, phosphor-c-jun, phosphor-ATF2, cleaved PARP, vimentin, α-smooth muscle actin, twist (Santa Cruz Biotechnology, Calif.), phosphor-IkB-alpha (Ser32/36), phosphor-IKK alpha (Seri 80)/IKK beta (Ser181), phosphor-SAPK/JNK (Thr183/Tyr185) G9, SAPK/JNK, NF-kB p65 (5A5) (Cell Signaling Technology Inc, Beverly, Mass.), Snail (Abcam). After incubation with appropriate secondary antibodies, signals were visualized by ECL western blotting system (Amersham, Piscataway, N.J.). Expression of β-actin and histone H1 were assessed as an internal loading control for total cell lysate and nuclear protein lysate respectively.
3.1.5 DNA fragmentation assay—After 24 hrs incubation with gamma-T3, 3×10^6 MDA-MB-231 cells were harvested and suspended in lysis buffer [5 mM Tris-HCl (pH 8.0), 20 mM EDTA, and 0.5% (v/v) Triton X-100] for 60 min on ice. Samples were centrifuged, the supernatants were removed and incubated with 5 μl RNase A (10 μg/ml) at 37° C. for 40 min, and 1 ml of anhydrous ethanol was added. Tubes were placed at […] for 20 min and then centrifuged to pellet the DNA. DNA samples were analyzed by electrophoresis at 80 V for 3 hrs on a 2% agarose gel containing ethidium bromide (0.2 μg/ml) and visualized under UV illumination.
3.1.6 Terminal deoxynucleotidyltransferase-mediated deoxyuridine triphosphate nick end-labelling (TUNEL) assay—DNA strand breaks during apoptosis was examined using in situ cell death detection reagent (Roche Applied Science). Briefly, 1×10^6 cells were pretreated with gamma-T3 for 24 hrs. Thereafter, cells were incubated with reaction mixture for 60 min at 37° C. Stained cells were analyzed and captured by fluorescence microscope on glass slide.
3.1.7 Flow cytometry was carried out as described above under item 1.1.3. Matrigel-invasion assay was carried out as described above under item 1.1.4. Western blotting was carried out as described above under item 1.1.5.
3.1.8 Id-1 RT-PCR—Total RNA was isolated using Trizol® reagent according to the manufacturer's protocol (Invitrogen). cDNA was synthesized using the SuperScript™ First Strand Synthesis System (Invitrogen) and was then amplified by PCR with Id-1 specific primers (forward primer, Id1-S, 5′-CTCCAGCACGTCATCGACTA-3′ and reverse primer, Id1-AS,5′-AAC GCA TGC CGC CTC-3′). PCR cycling protocol was as follows: 30 cycles of 10 min at 95° C., 30 s at 95° C., 30 s at 55° C., 1 min at 72° C. and 10 min at 72° C. Glyceraldehyde 3-phosphate dehydrogenase was amplified as an internal control. […]

[2] = test system: human androgen-dependent PCa cells (LNCaP); test: MTT cell viability, LNCaP cells; assay type: cell-based
Experimental: 2.1.3 Cell viability study and time course experiment—For cell viability study, 5×10^3 cells resuspended in 100 μl medium were plated into each well of a 96-well plate. The cells were then treated with different concentrations (20, 40, 60, 80, 100 μM) of the vitamin-E isomers for 24 and 48 hrs. After the treatment, 20 μl of MTT solution was added into each well and the cells were incubated at 37° C. for 2 hrs. The formazan crystals were then re-suspended in 200 μl of DMSO and the intensity at 595 nm were measured. For JNK inhibitor study, cells were pre-treated with 20 μM of SP600125 for 8 hrs prior to the addition of vitamin-E isomers. For time course study, 5×10^3 cells (LNCaP and PC3) were treated with IC50 concentrations of the vitamin-E isomers and were subjected to MTT assay at the indicated time point. […] After 24 hrs, cells were subjected to western blotting and MTT assays respectively.

[3] = test system: prostate intraepithelial neoplasia (PIN); test: Prevention of prostate intraepithelial neoplasia (PIN) in prostate cancer mouse models; assay type: in vivo; details: fed mice, FIG. 8
Experimental: For experiments, 5-week old prostate cancer mouse models previously published (Gabril, M. Y., Duan, W., et al., Molecular Therapy (2005), vol. 11, no. 3, p. 348; Greenberg et al., Proc Natl Acad Sci USA (1995), vol. 92, pp. 3439-3443; Duan, W., Gabril, M. Y., et al., Oncogene (2005) 24, 1510-1524; Wang S, Gao J, et al., Cancer Cell., 2003, vol. 4, no. 3, pp. 209-21; Gabril, M. Y., Onita, T., et al., Gene Ther., 2002, vol. 9, no. 23, pp. 1589-99) are used. All animal experiments were conducted according to standard protocols approved by Animal Care Committee. Genotyping was performed in PSP-TGMAP, and KIMAP mice were identified by a quick PCR genotyping protocol as previously reported (see above references referred to under item 6).
In one exemplary experiment, the animals are given 1 mg of gamma tocotrienol per day for 30 weeks via oral gavage. At the end of 10, 20 and 30 weeks, animals are sacrificed. The prostate along with the male accessory glands, i.e., the ventral and dorsolateral prostate lobes, seminal vesicles, and coagulation gland, were dissected out separately for histopathological characterization of prostate tumor development, prostate intraepithelial neoplasia (PIN) development and microinvasion. […]

## CC(=O)O[C@@]12CO[C@@H]1C[C@H](O)[C@@]1(C)C(=O)[C@H](O)C3=C(C)[C@@H](OC(=O)[C@H](O)[C@@H](NC(=O)OC(C)(C)C)c4ccccc4)C[C@@](O)([C@@H](OC(=O)c4ccccc4)[C@H]21)C3(C)C [Docetaxel, (2R,3S)—N-carboxy-3-phenylisoserine, N-tert-butylester, 13-ester with 5,20-epoxy-1,2,4,7,10,13-hexahydroxytax-11-en-9-one-4-acetate-2-benzoate, trihydrate, reference compound]
DU145 prostaspheres
  effect on prostasphere number: failed to induce any observable effect on prostasphere number
DU145
  IC90 dosage: 1.01 ng/mL

## COc1cccc(-c2cc(=O)c3ccccc3o2)c1N [PD98059]
[1]
  cancer cell viability after gamma-T3 treatment with MAPK inhibitor: not able to restore cancer cell viability

## N#CC(=C(/N)Sc1ccccc1N)/C(C#N)=C(\N)Sc1ccccc1N [U0126]
[1]
  cancer cell viability after gamma-T3 treatment with MAPK inhibitor: not able to restore cancer cell viability

## N#CCCN [β-aminopropionitrile, reference compound]
MDA-MB-231 cells
  Id1 expression on co-treatment with gamma-T3: almost completely restored the expression of Id1

## Cc1c(O)cc2c(c1C)O[C@](C)(CCC[C@H](C)CCC[C@H](C)CCCC(C)C)CC2 [γ-T, 7,8-dimethyltocol, reference compound]
[2]; data not shown
  induction of apoptosis in LNCaP cells: induce apoptosis in LNCaP cells at a dose similar to γ-T3

## CC(C)=CCC/C(C)=C/CC/C(C)=C/CC[C@]1(C)CCc2cc(O)cc(C)c2O1 [δ-T3, 8-methyltocotrienol]
[2]; compared with the other isomers
  potency in suppressing cell growth in LNCaP: more potent
[3]
  development of prostate intraepithelial neoplasia (PIN): did not develop PIN

— patent US20110195910A1, “USE OF TOCOTRIENOL COMPOSITION FOR THE PREVENTION OF CANCER” (DAVOS LIFE SCIENCE PTE. LTD., priority 2008, published 2011)
